Key:
[1] = target: T1, Human Neuropeptide Y2 Receptor (Homo sapiens, UniProt P49146); test: Radioligand binding competition assay (RLB); conditions: Table 3, 125I-PYY(1-36) competition; read-out: Ki
T1 construct: purchased CHEMICON HTS066M
T1 sequence (P49146 1-381): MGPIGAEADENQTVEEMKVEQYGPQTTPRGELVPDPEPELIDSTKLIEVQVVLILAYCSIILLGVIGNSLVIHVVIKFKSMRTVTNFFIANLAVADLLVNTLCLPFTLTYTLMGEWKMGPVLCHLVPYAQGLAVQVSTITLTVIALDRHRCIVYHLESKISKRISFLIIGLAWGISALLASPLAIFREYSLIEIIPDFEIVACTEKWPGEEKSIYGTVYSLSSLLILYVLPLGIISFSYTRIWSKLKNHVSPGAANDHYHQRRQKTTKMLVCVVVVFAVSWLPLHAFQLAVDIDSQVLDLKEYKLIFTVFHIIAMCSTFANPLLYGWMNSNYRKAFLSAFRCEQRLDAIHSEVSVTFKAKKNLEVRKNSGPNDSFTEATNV
How it was run: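 Displacement of radioligand is measured after 2 h at room temperature with receptor membranes in Mg2+/Ca2+ HEPES buffer, pH 7.4. Filter-bound radioactivity is counted and IC50 obtained from curve fitting.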

Solubility determination = conditions: for Sol6: pH 6; for Sol7: pH 7
How it was run: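 First, TFA-salt peptide was added to 0.1 M sodium diphosphate (pH 6.4 or 7.0) to 10 mg/ml and shaken 2 h at room temperature. Next, insoluble material was filtered off. Finally, filtrate and control, each 1 mg/ml in 50% acetonitrile, were compared by reversed-phase chromatography.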

| Structure (SMILES) | Ki [1] | Sol6 (Solubility determination) | Sol7 (Solubility determination) |
| --- | --- | --- | --- |
| CC(C)CC(=O)N[C@@H](C)C(=O)N1CCC[C@H]1C(=O)N[C@@H](CCC(=O)O)C(=O)N[C@@H](CCCCNC(=O)CCCCCNC(=O)CC[C@H](NC(=O)CCCCCCCCCCCCCCCCC(=O)O)C(=O)O)C(=O)N1CCC[C@H]1C(=O)N[C@@H](CCC(=O)O)C(=O)N[C@@H](CCC(=O)O)C(=O)N[C@@H](CC(=O)O)C(=O)N[C@@H](C)C(=O)N[C@H](C(=O)N1CCC[C@H]1C(=O)N[C@@H](CCC(=O)O)C(=O)N[C@@H](CCC(=O)O)C(=O)N[C@@H](C)C(=O)N[C@@H](CCC(N)=O)C(=O)N[C@@H](CCCNC(=N)N)C(=O)N[C@@H](Cc1ccc(O)cc1)C(=O)N[C@@H](Cc1ccc(O)cc1)C(=O)N[C@H](C(=O)N[C@@H](CO)C(=O)N[C@@H](CC(C)C)C(=O)N[C@@H](CCCNC(=N)N)C(=O)N[C@@H](Cc1c[nH]cn1)C(=O)N[C@@H](Cc1ccc(O)cc1)C(=O)N[C@@H](Cc1ccc(O)cc1)C(=O)N[C@@H](CC(N)=O)C(=O)N[C@@H](Cc1c[nH]c2ccccc12)C(=O)N[C@@H](CC(C)C)C(=O)N[C@H](C(=O)N[C@@H](CCCNC(=N)N)C(=O)N[C@@H](CCC(N)=O)C(=O)N[C@@H](CCCNC(=N)N)C(=O)N[C@@H](Cc1ccc(O)cc1)C(N)=O)[C@@H](C)O)C(C)C)[C@@H](C)O [Compound 54, N{alpha-4}-(3-methylbutanoyl)-N{epsilon-7}-(6-[(4S)-4-carboxy-4-(17-carboxyheptadecanamido)butanamido]hexanoyl)-[4A,7K,9E,13T,17A,18Q,22V,28Y,30W,31L]-hPYY(4-36)] | 8.97 nM | 10.0 mg/mL | 10.0 mg/mL |
| CC(C)CC(=O)N[C@@H](C)C(=O)N1CCC[C@H]1C(=O)N[C@@H](CCC(=O)O)C(=O)N[C@@H](CCCCNC(=O)CCCCCNC(=O)CC[C@H](NC(=O)CCCCCCCCCCCCCCCCC(=O)O)C(=O)O)C(=O)N1CCC[C@H]1C(=O)N[C@@H](CCC(=O)O)C(=O)N[C@@H](CCC(=O)O)C(=O)N[C@@H](CC(=O)O)C(=O)N[C@@H](C)C(=O)N[C@H](C(=O)N[C@@H](CCC(=O)O)C(=O)N[C@@H](CCC(=O)O)C(=O)N[C@@H](CCC(=O)O)C(=O)N[C@@H](CC(C)C)C(=O)N[C@@H](CCC(N)=O)C(=O)N[C@@H](CCCNC(=N)N)C(=O)N[C@@H](Cc1ccc(O)cc1)C(=O)N[C@@H](Cc1ccc(O)cc1)C(=O)N[C@H](C(=O)N[C@@H](CO)C(=O)N[C@@H](CC(C)C)C(=O)N[C@@H](CCCNC(=N)N)C(=O)N[C@@H](Cc1c[nH]cn1)C(=O)N[C@@H](Cc1ccc(O)cc1)C(=O)N[C@@H](Cc1ccc(O)cc1)C(=O)N[C@@H](CC(N)=O)C(=O)N[C@@H](Cc1c[nH]c2ccccc12)C(=O)N[C@@H](CC(C)C)C(=O)N[C@H](C(=O)N[C@@H](CCCNC(=N)N)C(=O)N[C@@H](CCC(N)=O)C(=O)N[C@@H](CCCNC(=N)N)C(=O)N[C@@H](Cc1ccc(O)cc1)C(N)=O)[C@@H](C)O)C(C)C)[C@@H](C)O [Compound 19, N{alpha-4}-(3-methylbutanoyl)-N{epsilon-7}-(6-[(4S)-4-carboxy-4-(17-carboxyheptadecanamido)butanamido]hexanoyl)[4A,7K,9E,13T,14E,18Q,22V,28Y,30W,31L]-hPYY(4-36)] | 9.63 nM | 10.0 mg/mL | 9.2 mg/mL |

Reference: patent publication US12391737B2, “Soluble NPY2 receptor agonists” (Boehringer Ingelheim International GmbH, priority 2020, dated 2025)
